Literature values as cited in patent US20210290548A1, “FORMULATIONS OF RALTEGRAVIR” (Merck Sharp & Dohme Corp., priority 2018, published 2021).
Read-outs that look alike come from different tables or passages of the source.

For Cc1nnc(C(=O)NC(C)(C)c2nc(C(=O)NCc3ccc(F)cc3)c([O-])c(=O)n2C)o1.[K+] [Raltegravir potassium, N-[(4-Fluorophenyl)methyl]-1,6-dihydro5-hydroxy-1-methyl-2-[1-methyl-1-[[(5-methyl-1,3,4-oxadiazol-2-yl)carbonyl]amino]ethyl]-6-oxo-4pyrimidinecarboxamide monopotassium salt], the solubility (acetonitrile) is given as “very slightly soluble”, the solubility (ethanol) is given as “very slightly soluble” and the solubility (isopropanol) is given as “insoluble”. For the same molecule, the solubility (methanol) was “slightly soluble” and the solubility (water) was “soluble”.
